In US8871789B2, “Method of preventing or treating viral infection” (The United States of America, as represented by the …, priority 2010, dated 2014):

Key:
Type in all cases: cell-based
HSV-1 [1] = assay: HSV-1 lytic viral yields from HFF cells; design: reduction of viral yields: dose or concentration left out as unconfirmed; details: HFF cells, HSV-1 0.1 PFU per cell, 24 hours; FIG. 14
Experimental: FIG. 14 is a bar graph showing viral yields from HFF cells treated with DMSO or ML324 for 3 hours and infected with HSV-1 (0.1 PFUper cell) for 24 hours in the presence of the drugs. *P<0.004, one-way ANOVA with Dunnett's post hoc test. Data are means±SEM.
HSV-1 lytic viral yields decrease in the presence of DMOG (FIG. 10). HFF cells were pretreated with DMSO control or JMJD2 inhibitor DMOG for 5 hrs and infected with 0.1 pfu/cell of HSV-1 for 24 hrs in the presence of DMSO or DMOG. The yield of infectious virus derived from each treatment were determined by tittering on Vero cells according to standard procedures.

HSV-1 [2] = assay: MRC-5 cells, ML324 added at times relative to HSV-1 infection; details: added at 2 hours after infection; HSV-1 1.0 MOI; FIG. 17
Experimental: FIG. 17 is a line graph showing MRC-5 cells that were treated with DMSO or ML324 at the indicated time relative to infection with HSV-1 (1.0 MOI). Viral and cellular mRNA levels were determined at 4 hours after infection. Data are means±SEM.

HSV-1 [3] = assay: Plaque assay of Vero cells infected with HSV-1; design: # Plaques: dose or concentration left out as unconfirmed; details: for # Plaques: 12 hours infection, then ACV or ML324 for 48 hours
Experimental: ML324 was ˜75-fold more efficient than DMOG. Additionally, ML324 (i) reduced viral yields in a dose-dependent manner (˜5 logs at 50 mM, FIG. 14); (ii) blocked viral IE gene transcription and reduced viral yields when cells were infected at high multiplicity of infection (MOI; FIGS. 15 and 16); and (iii) suppressed IE gene transcription, even when added at times after infection (>50% reduction at 2 hours after infection; FIG. 17). As further evidence for the efficacy of ML324, cells were infected with HSV to allow for a productive cycle of infection, followed by treatment with DMSO, ACV, or ML324.

[4] = treatment after productive cycle of infection

Q: Which results are given for CN(C)CCCNC(=O)c1ccc(-c2cc(O)c3ncccc3c2)cc1 [Compound 4, N-(3-(dimethylamino)propyl)-4-(8-hydroxyquinolin-6-yl)benzamide]?
A: reduction of viral yields (HSV-1 [1]): ~5 logs; reduction of IE gene transcription when added after infection (HSV-1 [2]): > 50%; # Plaques (HSV-1 [3]; MOI .001): 0; # Plaques (HSV-1 [3]; MOI .01): 2; formation of HSV plaques (HSV-1 [3]; [4]): markedly suppressed; spread of infection to adjacent cells (UL29 immunofluorescence) (HSV-1 [3]; [4]): markedly suppressed
